Reference: patent publication US9446088B2, “Preparation and use of a plant extract from solanum glaucophyllum with an enriched content of 1,25 dihydroxyvitamin D3 glycosides and quercetin glycosides” (HERBONIS AG, priority 2008, dated 2016)

What was measured:
[1] = system: Japanese quails (Coturnix japonica) on Vitamin D-deficient diet; experiment: Japanese quail eggshell bioassay for vitamin D activity; format: in vivo
From the text: From Rambeck et al. (see Rambeck et al, Ann. Nutr. Metab. 30, 9-14, (1986)) it is known that the quail egg shell assay is used as a simple bioassay to assess Vitamin D activity. According to this assay, Japanese quails (Coturnix japonica) of egg laying age and selected for a laying performance of >80% were set on a Vitamin D-deficient diet containing all other nutrients in optimal amounts. After approximately 8 days, the laying performance as the most sensitive marker dropped below 10%. Then, the test animals were randomly divided into groups of 10 animals and the diet was changed to the same diet, but supplemented with the substance to be tested. Laying performance was monitored for 21 days together with other markers of vitamin D-metabolism, such as alkaline phosphatase and calcium in plasma.
In Experiment 1 three groups of quails received 100, 200 and 400 international units of vitamin D3 per kg feed, 5 groups received 2, 8, 32, 128 and […] purified plant extract and one group was given synthetic 1, 25-Dihydroxyvitamin D3 (1 μg/kg feed) and another group received ground dried leaves of Solanum glaucophyllum (1000 mg/kg feed).

[2] = system: commercial broiler chickens; experiment: Broiler experiment for leg anomalies (tibial dyschondroplasia); format: in vivo; parameters: dose or concentration left out as unconfirmed; settings: after day 14 of treatment
Method: In experiment 2, male one-day old broiler chickens were fed a commercial diet containing 1,000 IUD/kg feed of vitamin D3 ad libitum. […] 76.8 μg 1,25-Dihydroxyvitamin D3 (determined after in vitro hydrolysis of the extract).

| SMILES | Eggshell weight (ESW) per day and animal, days 5-21 ([1]; 100 IUD per kg feed) [g] | Average egg weight between day 1 and 21 ([1]; 100 IUD/kg feed) [g] | Egg weight in % of standard group Vitamin D3 400 IUD/kg feed ([1]; 100 IUD/kg feed) [%] | Eggshell weight (ESW) per day and animal, days 5-21 ([1]; 200 IUD per kg feed) [g] | Average egg weight between day 1 and 21 ([1]; 200 IUD/kg feed) [g] | Egg weight in % of standard group Vitamin D3 400 IUD/kg feed ([1]; 200 IUD/kg feed) [%] | Eggshell weight (ESW) per day and animal, days 5-21 ([1]; 400 IUD per kg feed) [g] | Average egg weight between day 1 and 21 ([1]; 400 IUD/kg feed) [g] | time by which laying performance passed 50% after beginning of treatment ([1]; onset of egg laying) [h] | Eggshell weight (ESW) per day and animal, days 5-21 ([1]; 1 μg per kg feed) [g] | Average egg weight between day 1 and 21 ([1]; 1.0 μg/kg feed) [g] | Egg weight in % of standard group Vitamin D3 400 IUD/kg feed ([1]; 1.0 μg/kg feed) [%] | Healthy animals. (%) [2] [b %] | Occurrence of TD (%) [2] | Occurrence of other leg anomalies (%) [2] [b %] |
| --- | --- | --- | --- | --- | --- | --- | --- | --- | --- | --- | --- | --- | --- | --- | --- |
| C=C1CC[C@H](O)C/C1=C/C=C1\CCC[C@]2(C)[C@@H]([C@H](C)CCCC(C)C)CC[C@@H]12 [Vitamin D3, cholecalciferol] | 0.231 | 9.61 | 90 | 0.434 | 10.40 | 97 | 0.738 | 10.70 | 48 to 72 |  |  |  |  |  |  |
| C=C1/C(=C\C=C2/CCC[C@]3(C)[C@@H]([C@H](C)CCCC(C)(C)O)CC[C@@H]23)C[C@@H](O)C[C@@H]1O [Synthetic 1,25(OH)2D3, 1,25-dihydroxyvitamin D3] |  |  |  |  |  |  |  |  |  | 0.502 | 10.58 | 99 | 92.9 | 3.55 *b % | 3.55 |
